Patent US6849394B2, “Compositions comprising reproductive cell media and methods for using such compositions” (Minitube of America, priority 2002, dated 2005)

Tested on: boar sperm cells
Assay: Motility of sperm in boar semen stored at 17° C. in sperm cell medium (Sperm Vison)
Assay type: cell-based
Method: Compositions comprising sperm cell media were prepared prior to collection by reconstituting Androhep Plus™ and the individual components indicated in the experiments below with microfiltered, deionized (Type I) water. Androhep Plus™ was prepared according to the manufacturer's instructions, except that additional components were added in an amount sufficient to give the concentrations indicated below. Each composition was transferred in 75-ml aliquots to 100-ml plastic bottles commercially available from Minitube of America (Verona, Wis.). Semen was collected (modified full ejaculate) from randomly selected, sexually mature boars (n=3) using the gloved hand technique. Following each collection, each ejaculate was evaluated for sperm cell concentration with an SDM5 photometer with a 546 nm filter and the percentage of motile cells was assessed with Sperm Vison™ using a plain glass slide and a 6 μl drop of semen. Aliquots of semen containing 1×10^9 motile spermatozoa from each of the three boars was transferred into each 75-ml aliquot of composition comprising sperm cell medium at the same temperature (36° C.±1° C.) to give a final concentration of 4×10^7 live sperm cells/ml. Following dispersion of the sperm cells in the composition, each sample was tested for percent motility. Samples were maintained in a semen storage unit at 17° C. The samples were gently mixed periodically during storage. […] Each aliquot was pre-warmed for 30 minutes in a dry block heater at 37° C. prior to motility testing. Motility testing was which was performed using the Sperm Vison™ module in the Prism Program and a plain glass slide pre-warmed to 37° C.

O=S(=O)([O-])[O-].[Zn+2] [zinc sulfate]
Mean % motility (Table 6, base Androhep Plus, zinc sulfate 0.05 g/L, day 1): 83.3%
Mean % motility (Table 6, base Androhep Plus, zinc sulfate 0.05 g/L, day 5): 83.7%
Mean % motility (Table 6, base Androhep Plus, zinc sulfate 0.05 g/L, day 10): 87.7%
Mean % motility (Table 6, base Androhep Plus, zinc sulfate 0.05 g/L, day 20): 84.0%
Mean % motility (Table 6, base Androhep Plus, zinc sulfate 0.1 g/L, day 1): 92.0%
Mean % motility (Table 6, base Androhep Plus, zinc sulfate 0.1 g/L, day 5): 93.3%
Mean % motility (Table 6, base Androhep Plus, zinc sulfate 0.1 g/L, day 10): 89.7%
Mean % motility (Table 6, base Androhep Plus, zinc sulfate 0.1 g/L, day 20): 78.3%
Mean % motility (Table 6, base Androhep Plus, zinc sulfate 0.2 g/L, day 1): 94.7%
Mean % motility (Table 6, base Androhep Plus, zinc sulfate 0.2 g/L, day 5): 93.3%
Mean % motility (Table 6, base Androhep Plus, zinc sulfate 0.2 g/L, day 10): 87.7%
Mean % motility (Table 6, base Androhep Plus, zinc sulfate 0.2 g/L, day 20): 87.0%
Mean % motility (Table 6, base Androhep Plus, zinc sulfate 0.5 g/L, day 1): 86.0%
Mean % motility (Table 6, base Androhep Plus, zinc sulfate 0.5 g/L, day 5): 85.7%
Mean % motility (Table 6, base Androhep Plus, zinc sulfate 0.5 g/L, day 10): 89.3%
Mean % motility (Table 6, base Androhep Plus, zinc sulfate 0.5 g/L, day 20): 82.5%
Mean % motility (Table 6, base Androhep Plus, zinc sulfate 1.0 g/L, day 1): 94.0%
Mean % motility (Table 6, base Androhep Plus, zinc sulfate 1.0 g/L, day 5): 73.0%
Mean % motility (Table 6, base Androhep Plus, zinc sulfate 1.0 g/L, day 10): 87.3%
Mean % motility (Table 6, base Androhep Plus, zinc sulfate 1.0 g/L, day 20): 78.3%

O[C@H]1[C@H](O)[C@@H](O)[C@H](O)[C@@H](O)[C@H]1O [inositol]
Mean % motility (Table 8, Androhep Plus, inositol 0.25 g/L, day 1): 85.7%
Mean % motility (Table 8, Androhep Plus, inositol 0.25 g/L, day 5): 88.0%
Mean % motility (Table 8, Androhep Plus, inositol 0.25 g/L, day 7): 93.3%
Mean % motility (Table 8, Androhep Plus, inositol 0.25 g/L, day 10): 78.3%
Mean % motility (Table 8, Androhep Plus, inositol 0.25 g/L, day 20): 48.0%
Mean % motility (Table 8, Androhep Plus, inositol 0.5 g/L, day 1): 94.7%
Mean % motility (Table 8, Androhep Plus, inositol 0.5 g/L, day 5): 93.3%
Mean % motility (Table 8, Androhep Plus, inositol 0.5 g/L, day 7): 92.7%
Mean % motility (Table 8, Androhep Plus, inositol 0.5 g/L, day 10): 84.3%
Mean % motility (Table 8, Androhep Plus, inositol 0.5 g/L, day 20): 70.3%

O=C(CO)[C@@H](O)[C@H](O)[C@H](O)CO [fructose]
Mean % motility (Table 7, Androhep Plus + 20 ng/L TGFβ-1, 0.8 ng/L TGFβ-2, 80 ng/L IGF-1, fructose 3.75 g/L, day 1): 94.9%
Mean % motility (Table 7, Androhep Plus + 20 ng/L TGFβ-1, 0.8 ng/L TGFβ-2, 80 ng/L IGF-1, fructose 3.75 g/L, day 5): 88.7%
Mean % motility (Table 7, Androhep Plus + 20 ng/L TGFβ-1, 0.8 ng/L TGFβ-2, 80 ng/L IGF-1, fructose 3.75 g/L, day 10): 88.7%
Mean % motility (Table 7, Androhep Plus + 20 ng/L TGFβ-1, 0.8 ng/L TGFβ-2, 80 ng/L IGF-1, fructose 3.75 g/L, day 20): 89.8%
Mean % motility (Table 7, Androhep Plus + 20 ng/L TGFβ-1, 0.8 ng/L TGFβ-2, 80 ng/L IGF-1, fructose 7.5 g/L, day 1): 96.9%
Mean % motility (Table 7, Androhep Plus + 20 ng/L TGFβ-1, 0.8 ng/L TGFβ-2, 80 ng/L IGF-1, fructose 7.5 g/L, day 5): 91.0%
Mean % motility (Table 7, Androhep Plus + 20 ng/L TGFβ-1, 0.8 ng/L TGFβ-2, 80 ng/L IGF-1, fructose 7.5 g/L, day 10): 88.3%
Mean % motility (Table 7, Androhep Plus + 20 ng/L TGFβ-1, 0.8 ng/L TGFβ-2, 80 ng/L IGF-1, fructose 7.5 g/L, day 20): 89.8%
Mean % motility (Table 7, Androhep Plus + 20 ng/L TGFβ-1, 0.8 ng/L TGFβ-2, 80 ng/L IGF-1, fructose 15 g/L, day 1): 94.3%
Mean % motility (Table 7, Androhep Plus + 20 ng/L TGFβ-1, 0.8 ng/L TGFβ-2, 80 ng/L IGF-1, fructose 15 g/L, day 5): 85.8%
Mean % motility (Table 7, Androhep Plus + 20 ng/L TGFβ-1, 0.8 ng/L TGFβ-2, 80 ng/L IGF-1, fructose 15 g/L, day 10): 89.3%
Mean % motility (Table 7, Androhep Plus + 20 ng/L TGFβ-1, 0.8 ng/L TGFβ-2, 80 ng/L IGF-1, fructose 15 g/L, day 20): 89.3%
Mean % motility (Table 7, Androhep Plus + 20 ng/L TGFβ-1, 0.8 ng/L TGFβ-2, 80 ng/L IGF-1, fructose 30 g/L, day 1): 94.7%
Mean % motility (Table 7, Androhep Plus + 20 ng/L TGFβ-1, 0.8 ng/L TGFβ-2, 80 ng/L IGF-1, fructose 30 g/L, day 5): 54.8%
Mean % motility (Table 7, Androhep Plus + 20 ng/L TGFβ-1, 0.8 ng/L TGFβ-2, 80 ng/L IGF-1, fructose 30 g/L, day 10): 37.4%
Mean % motility (Table 7, Androhep Plus + 20 ng/L TGFβ-1, 0.8 ng/L TGFβ-2, 80 ng/L IGF-1, fructose 30 g/L, day 20): 2.2%
